This assay has as its target Krueppel-like factor 5 (Homo sapiens) (UniProt Q13887). Briefly: KLF5 protein abundance shift by immunoblot – western blot, chemiluminescence, HT29 colorectal cells, counter-screen for KLF5 inhibitor project, late-stage follow-up (AID 588660). The conditions noted are these: 24 h, at 10 µM, stronger effect = higher value. Background: Immunoblotting shows a protein as a band on a membrane.

Activity calls are given as the source filed them.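 Rule for the calls: active = KLF5 protein level shifted at least 30% from solvent-only control, either down or up; inactive = shift under 30% either way.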

Sequence of Krueppel-like factor 5 (Homo sapiens) (Q13887 whole entry, looked up): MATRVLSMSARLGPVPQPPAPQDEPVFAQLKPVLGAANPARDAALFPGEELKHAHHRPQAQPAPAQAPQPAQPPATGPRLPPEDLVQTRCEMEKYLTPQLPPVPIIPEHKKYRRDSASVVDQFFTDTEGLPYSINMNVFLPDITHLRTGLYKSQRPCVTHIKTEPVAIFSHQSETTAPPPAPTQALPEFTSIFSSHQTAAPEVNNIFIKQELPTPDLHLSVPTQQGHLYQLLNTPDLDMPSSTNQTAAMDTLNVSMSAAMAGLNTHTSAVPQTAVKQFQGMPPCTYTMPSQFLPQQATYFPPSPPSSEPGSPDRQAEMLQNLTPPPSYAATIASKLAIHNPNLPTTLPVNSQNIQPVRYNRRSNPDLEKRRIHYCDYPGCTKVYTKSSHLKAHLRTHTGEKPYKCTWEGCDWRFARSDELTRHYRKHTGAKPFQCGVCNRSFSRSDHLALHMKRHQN

Consider `CN(C(=O)COC(=O)/C=C/c1cccc([N+](=O)[O-])c1)C1CCS(=O)(=O)C1` (stereo unspecified), for which the inhibition was 12.8% (inactive).

As a reminder, the inhibition is how much of the control response was suppressed.

The values are drawn from PubChem BioAssay AID588660 (The Scripps Research Institute Molecular Screening Center, 2011).
